Test results reported in US12678453B2, “Aerosolized formulations of HIV protease inhibitors for the treatment of airway reflux” (The Medical College of Wisconsin, Inc., priority 2020, dated 2026).
Entries after “also recorded” stand apart in the source; their conditions may differ.

Test system: mouse model of laryngopharyngeal reflux (LPR)
Experiment: in vivo mouse model of LPR (laryngeal wounding and pepsin instillation, H&E histology)
Details: for laryngeal histology (H&E) / pepsin-mediated laryngeal injury: pepsin pH7 group; for laryngeal histology (H&E): solvent (saline/PBS pH7) group
Excerpt: An in vivo mouse model of direct application of pepsin, to mimic laryngeal exposure during LPR, and treatment with select HIV protease inhibitors by either gavage (oral systemic delivery) or aerosolized delivery (inhaled local delivery) was used. […] Each group contained 3 mice. Six-week-old female Jackson A/J mice (Jackson Laboratory, Bar Harbor, ME), weighed one day after arrival, then weekly, on Mondays thereafter.
Avertin was the preferred anesthetic for the brief application time needed as it has a rapid induction, produces a short surgical anesthesia, and has a rapid recovery. […] For this experiment, isoflurane inhalation was used. The isoflurane, self-scavenging machine, was operated at 3% isoflurane with 2.5 liters of air per minute (LPM). The induction chamber was charged for 3-5 minutes prior to the mice being anesthetized. Mice were placed in the induction chamber for 3-5 minutes prior to any wounding or administrations. Anesthesia records were kept according to IACUC policy.
Animals secured by a copper wire attached to the board from which the mice were suspended by their upper teeth. This caused the lower jaw to fall open naturally, exposing the larynx and permitting visualization with a Zeiss microscope at 6× magnification. […] Under direct visualization, the subglottis, glottis, and supraglottis regions were superficially scratched interiorly from distal to proximal as the needle was pulled out gently, making a mild abrasion. This procedure was performed twice, with one week between woundings.
To examine the effect pepsin at acid and nonacid pH, animals were treated for 2 weeks with laryngeal instillation of pepsin (20 μL at 0.3 mg/ml, pH 7.0 or pH 4.0) at 24, 48, and 72 h post wounding procedure. During weeks 3 and 4, animals were treated with laryngeal instillation for 3 days per week. Mice were sacrificed and samples collected on Friday of the fourth week.
The twelve mice in the aerosol groups were condition in the nose-only exposure chamber (Intox) on three separate days by exposure to dry air for 10 min. Beginning the Monday (day 1) of the next week, aerosols and gavages were performed on the mice Monday through Friday (5 exposures). The aerosols and gavages continued Monday-Friday for three more weeks, with the final week consisting of 4 total exposure days, Monday-Thursday, (19 total) with the mice sacrificed and tissues harvested on Friday. Each mouse received two woundings and 12 solvent or pepsin administrations. Wounding and intratracheal administrations were concurrent with the aerosol and gavage treatments. The first wounding was performed on day 2, followed by solvent or pepsin administrations on days 3, 4, and 5. The second wounding was performed on day 8, followed by solvent or pepsin administrations on days 9, 10, and 11. In weeks 3 and 4, mice received solvent or pepsin administrations on days 16, 17, and 18 and days 23, 24, and 25. Day 26 was sacrifice and tissue harvest.
A 10 mL suspension of drug in ethanol was placed in the baffle, such that the concentration would remain constant at the equilibrium solubility. Droplets of ethanol containing dissolve drug were generated by an ultrasonic atomizer (nominal frequency 1.7 MHz) entrained by air at a flow rate of 0.5 LPM with a custom-built glass baffle (University of Minnesota, Department of Chemistry Glass Shop). The aerosol cloud was then passed through a cylindrical drying column containing an annular ring of charcoal. The ethanol is removed and the emanating dry aerosol particles of pure drug were then directed into the exposure chamber.
The mass deposited on the filters in a fixed collection time was measured gravimetrically, and with the collection time, allowed calculation of the total output rate (mg/min). The aerosol concentration (mass/volume of air) was calculated by dividing the total output rate by the air flow rate (0.5 LPM).

`CC(C)CN(C[C@@H](O)[C@H](Cc1ccccc1)NC(=O)O[C@H]1CO[C@H]2OCC[C@H]21)S(=O)(=O)c1ccc(N)cc1` [darunavir, [(3a S,4R,6aR)-2,3,3a,4,5,6a-hexahydrofuro[2,3-b]furan-4-yl] N-[(2S,3R)-4-[(4-aminophenyl)sulfonyl-(2-methylpropyl)amino]-3-hydroxy-1-phenylbutan-2-yl]carbamate] was tested, and the “pepsin-mediated laryngeal injury (multi-layered, reactive epithelia and cell apoptosis)” value (aerosol, 12 mg/kg/d) was “effective in preventing pepsin mediated injury”, the “laryngeal histology (H&E) / pepsin-mediated laryngeal injury” value (aerosol) was “normal histology; also recorded: mild protection against pepsin-mediated damage” and the “laryngeal histology (H&E)” value (aerosol) was “normal histology”. The “laryngeal histology (H&E) / pepsin-mediated laryngeal injury” value (gavage) was “appeared similar”, the “laryngeal histology (H&E) / pepsin-mediated laryngeal injury” value (gavage, listed as Darunavir) was “mild reactive epithelia in the pepsin group but less than pepsin control” and the “laryngeal histology (H&E)” value (gavage) was “mild reactive epithelia in the solvent group, but less than pepsin control; also recorded: mild reactivity (rare intraepithelial lymphocytes)”.
